Test results as given in US20250353891A1 (MEDIMMUNE LIMITED, priority 2022, published 2025).
pEC50: −log10 of the molar value. Starred links: 1 amine or outer side, 2 acyl side, 3 side chain; linkers in the order of their positions; H or OH if unused. Non-standard residues stand in square brackets, D forms with d. Residues, ends and D or L forms follow the SMILES beside them. Groups on a side chain read outwards from the residue. *: point of attachment. C20 diacid = O=C(O)CCCCCCCCCCCCCCCCCCC(=O)*; γGlu = O=C(O)[C@H](CCC(=O)[*:2])N[*:1]; αMeF = C[C@](N)(Cc1ccccc1)C(=O)O; AEEA = NCCOCCOCC(=O)O; Aib = CC(C)(N)C(=O)O

How the values were obtained:
[1] = biological target: human GLP-1 receptor (hGLP-1R) (Homo sapiens, UniProt P43220); assay: cAMP production (HTRF) in CHO cells expressing hGLP-1R; assay type: cell-based; set-up: expressed in transfected cells; details: for pEC50: Table 6, peptides modified at position 17, cAMP in CHO hGLP-1R cells, geometric mean, read-out: hGLP-1R EC50; for % Relative Potency Ratio: Table 6, % GLP-1R activity relative to GLP-1 / % GlucR activity relative to glucagon
Sequence of human GLP-1 receptor (hGLP-1R) (P43220 24-463): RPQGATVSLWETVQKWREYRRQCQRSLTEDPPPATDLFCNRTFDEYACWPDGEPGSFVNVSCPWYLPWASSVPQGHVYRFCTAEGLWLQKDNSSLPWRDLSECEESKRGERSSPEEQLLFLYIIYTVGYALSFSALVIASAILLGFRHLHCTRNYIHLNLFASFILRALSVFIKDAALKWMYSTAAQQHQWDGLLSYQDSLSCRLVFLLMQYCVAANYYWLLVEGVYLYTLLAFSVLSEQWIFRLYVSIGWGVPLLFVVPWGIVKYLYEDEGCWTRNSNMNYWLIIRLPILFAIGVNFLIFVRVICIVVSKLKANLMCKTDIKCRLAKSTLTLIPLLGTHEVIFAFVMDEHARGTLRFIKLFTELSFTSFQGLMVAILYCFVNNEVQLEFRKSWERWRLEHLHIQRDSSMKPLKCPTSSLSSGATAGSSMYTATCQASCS
Procedure, shortened: (§1)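 Potency values represent EC50 from 4-parameter logistic curves of HTRF % Delta F signal. Receptor-expressing CHO cells (hGCGR 2×10^5 cells/mL, hGLP-1R 1×10^5 cells/mL) were exposed for 30 min at room temperature before two-step cAMP detection.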

[2] = biological target: human glucagon receptor (hGCGR) (Homo sapiens, UniProt P47871); assay: cAMP production (HTRF) in CHO cells expressing hGCGR; assay type: cell-based; set-up: expressed in transfected cells; details: Table 6, peptides modified at position 17; cAMP in CHO hGCGR cells; geometric mean; read-out: hGluc-R EC50
Sequence of human glucagon receptor (hGCGR) (P47871 26-477): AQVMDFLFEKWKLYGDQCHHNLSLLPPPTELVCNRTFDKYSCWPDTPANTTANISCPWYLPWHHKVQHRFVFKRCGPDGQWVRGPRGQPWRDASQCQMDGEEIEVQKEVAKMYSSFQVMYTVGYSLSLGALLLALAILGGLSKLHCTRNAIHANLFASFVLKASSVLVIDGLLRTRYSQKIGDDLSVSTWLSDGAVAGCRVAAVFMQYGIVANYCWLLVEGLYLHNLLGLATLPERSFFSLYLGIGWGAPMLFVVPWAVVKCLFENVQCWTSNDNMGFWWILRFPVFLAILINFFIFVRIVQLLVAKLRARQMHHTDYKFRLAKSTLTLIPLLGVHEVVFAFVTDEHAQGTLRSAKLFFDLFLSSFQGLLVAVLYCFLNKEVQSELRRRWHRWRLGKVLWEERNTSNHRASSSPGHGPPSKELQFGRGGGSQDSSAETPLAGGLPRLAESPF
Procedure, shortened: as §1

## CC(C)C[C@H](NC(=O)[C@H](Cc1c[nH]c2ccccc12)NC(=O)[C@H](C)NC(=O)[C@@H](NC(=O)[C@H](Cc1ccccc1)NC(=O)[C@H](CC(=O)O)NC(=O)[C@H](CCCNC(=N)N)NC(=O)[C@H](C)NC(=O)[C@H](CCCNC(=N)N)NC(=O)[C@H](CCCCNC(=O)COCCOCCNC(=O)COCCOCCNC(=O)CC[C@H](NC(=O)CCCCCCCCCCCCCCCCCCC(=O)O)C(=O)O)NC(=O)[C@@H](NC(=O)[C@H](CC(=O)O)NC(=O)[C@H](CC(C)C)NC(=O)[C@](C)(Cc1ccccc1)NC(=O)[C@H](CCCCN)NC(=O)[C@H](CO)NC(=O)[C@@H](NC(=O)[C@H](CC(=O)O)NC(=O)[C@H](CO)NC(=O)[C@@H](NC(=O)[C@H](Cc1ccccc1)NC(=O)[C@@H](NC(=O)CNC(=O)[C@H](CCC(N)=O)NC(=O)C(C)(C)NC(=O)[C@@H](N)Cc1c[nH]cn1)[C@@H](C)O)[C@@H](C)O)C(C)C)[C@@H](C)O)C(C)C)C(=O)N[C@@H](CC(C)C)C(=O)N[C@@H](CCC(=O)O)C(=O)NC(C)(C)C(=O)NCC(=O)O [Peptide 506] (H-H[Aib]QGTFTSDVSK[αMeF]LDTK([AEEA-AEEA-γGlu-C20 diacid])RARDFVAWLLE[Aib]G-OH; N-terminus assumed)
[1]
  pEC50: 9.79
  % Relative Potency Ratio: 1.8
[2]
  pEC50: 9.83

## CC(C)C[C@H](NC(=O)[C@H](Cc1c[nH]c2ccccc12)NC(=O)[C@H](C)NC(=O)[C@@H](NC(=O)[C@H](Cc1ccccc1)NC(=O)[C@H](CC(=O)O)NC(=O)[C@H](CCCNC(=N)N)NC(=O)[C@H](C)NC(=O)[C@H](CCCNC(=N)N)NC(=O)[C@H](CCCCNC(=O)COCCOCCNC(=O)COCCOCCNC(=O)CC[C@H](NC(=O)CCCCCCCCCCCCCCCCCCC(=O)O)C(=O)O)NC(=O)[C@@H](NC(=O)[C@H](CC(=O)O)NC(=O)[C@H](CC(C)C)NC(=O)[C@](C)(Cc1ccccc1)NC(=O)[C@H](CCCCN)NC(=O)[C@H](CO)NC(=O)[C@@H](NC(=O)[C@H](CC(=O)O)NC(=O)[C@H](CO)NC(=O)[C@@H](NC(=O)[C@H](Cc1ccccc1)NC(=O)[C@@H](NC(=O)CNC(=O)[C@H](CCC(N)=O)NC(=O)C(C)(C)NC(=O)[C@@H](N)Cc1c[nH]cn1)[C@@H](C)O)[C@@H](C)O)C(C)C)[C@@H](C)O)C(C)C)C(=O)N[C@@H](CC(C)C)C(=O)N[C@@H](CCC(=O)O)C(=O)NC(C)(C)C(=O)NCC(N)=O [Peptide 507]
[1]
  pEC50: 10.28
  % Relative Potency Ratio: 3.2
[2]
  pEC50: 10.06

## CC(C)C[C@H](NC(=O)[C@H](Cc1c[nH]c2ccccc12)NC(=O)[C@H](CCCNC(=N)N)NC(=O)[C@@H](NC(=O)[C@H](Cc1ccccc1)NC(=O)[C@H](CC(=O)O)NC(=O)[C@H](CCC(N)=O)NC(=O)[C@H](C)NC(=O)[C@H](CCCNC(=N)N)NC(=O)[C@H](CCCCNC(=O)COCCOCCNC(=O)COCCOCCNC(=O)CC[C@H](NC(=O)CCCCCCCCCCCCCCCCCCC(=O)O)C(=O)O)NC(=O)[C@H](CO)NC(=O)[C@H](CCC(=O)O)NC(=O)[C@H](CC(C)C)NC(=O)[C@](C)(Cc1ccccc1)NC(=O)[C@H](CCCCN)NC(=O)[C@H](CO)NC(=O)[C@@H](NC(=O)[C@H](CC(=O)O)NC(=O)[C@H](CO)NC(=O)[C@@H](NC(=O)[C@H](Cc1ccccc1)NC(=O)[C@@H](NC(=O)CNC(=O)[C@H](CCC(N)=O)NC(=O)C(C)(C)NC(=O)[C@@H](N)Cc1c[nH]cn1)[C@@H](C)O)[C@@H](C)O)C(C)C)C(C)C)C(=O)N[C@H](C(=O)N[C@@H](CCC(=O)O)C(=O)NC(C)(C)C(=O)NCC(N)=O)C(C)C [Peptide 508] (H-H[Aib]QGTFTSDVSK[αMeF]LESK([AEEA-AEEA-γGlu-C20 diacid])RAQDFVRWLVE[Aib]G-NH2)
[1]
  pEC50: 10.17
  % Relative Potency Ratio: 81.6
[2]
  pEC50: 8.55
